In ChEMBL document CHEMBL3045150, “Synthesis and structureactivity relationship studies on novel 8-amino-3-[2-(4-fluorophenoxy)ethyl]-1,3-diazaspiro[4.5]decane-2,4-dione derivatives as anticonvulsant agents” (Med Chem Res, 2013):

tested on: Mus musculus; assay: Neurotoxicity in albino Mus musculus (mouse) assessed as motor impairment at 100 mg/kg, po measured at 4 hr by rotarod test; assay type: toxicity, organism-based; parameters: dose 100 mg/kg, route oral; details: in vivo

Row | Structure (SMILES) | Activity
1 | O=C1NC2(CCC(NS(=O)(=O)c3cccc(F)c3)CC2)C(=O)N1CCOc1ccc(F)cc1 (stereo not given) | Non-toxic
2 | Cc1cc(C)cc(S(=O)(=O)NC2CCC3(CC2)NC(=O)N(CCOc2ccc(F)cc2)C3=O)c1 (stereo not given) | Non-toxic
3 | CCc1ccc(S(=O)(=O)NC2CCC3(CC2)NC(=O)N(CCOc2ccc(F)cc2)C3=O)cc1 (stereo not given) | Non-toxic
4 | Cc1cccc(S(=O)(=O)NC2CCC3(CC2)NC(=O)N(CCOc2ccc(F)cc2)C3=O)c1 (stereo not given) | Non-toxic
5 | N#Cc1ccccc1S(=O)(=O)NC1CCC2(CC1)NC(=O)N(CCOc1ccc(F)cc1)C2=O (stereo not given) | Non-toxic
6 | O=C(NC1CCC2(CC1)NC(=O)N(CCOc1ccc(F)cc1)C2=O)OCc1ccccc1Cl (stereo not given) | Non-toxic
7 | O=C(NC1CCC2(CC1)NC(=O)N(CCOc1ccc(F)cc1)C2=O)Oc1ccc(Cl)cc1 (stereo not given) | Non-toxic
8 | Cc1ccc(C(=O)NC2CCC3(CC2)NC(=O)N(CCOc2ccc(F)cc2)C3=O)cc1 (stereo not given) | Non-toxic
9 | O=C(Cc1ccccc1)NC1CCC2(CC1)NC(=O)N(CCOc1ccc(F)cc1)C2=O (stereo not given) | Non-toxic
10 | O=C(NC1CCC2(CC1)NC(=O)N(CCOc1ccc(F)cc1)C2=O)c1ccccc1F (stereo not given) | Toxic
11 | Cc1cccc(C(=O)NC2CCC3(CC2)NC(=O)N(CCOc2ccc(F)cc2)C3=O)c1 (stereo not given) | Non-toxic
12 | O=C(NC1CCC2(CC1)NC(=O)N(CCOc1ccc(F)cc1)C2=O)c1cccc(Cl)c1 (stereo not given) | Toxic
13 | O=C(NC1CCC2(CC1)NC(=O)N(CCOc1ccc(F)cc1)C2=O)c1ccccc1 (stereo not given) | Non-toxic
14 | O=C(NC1CCC2(CC1)NC(=O)N(CCOc1ccc(F)cc1)C2=O)c1cccc(F)c1 (stereo not given) | Toxic
15 | O=C(NC1CCC2(CC1)NC(=O)N(CCOc1ccc(F)cc1)C2=O)c1ccc(F)cc1 (stereo not given) | Toxic
16 | O=C(NC1CCC2(CC1)NC(=O)N(CCOc1ccc(F)cc1)C2=O)Oc1ccccc1 (stereo not given) | Non-toxic
17 | O=C(NC1CCC2(CC1)NC(=O)N(CCOc1ccc(F)cc1)C2=O)c1ccc(Cl)cc1 (stereo not given) | Toxic
18 | O=C(NC1CCC2(CC1)NC(=O)N(CCOc1ccc(F)cc1)C2=O)c1ccccc1C(F)(F)F (stereo not given) | Non-toxic
19 | O=C(NC1CCC2(CC1)NC(=O)N(CCOc1ccc(F)cc1)C2=O)c1ccccc1Cl (stereo not given) | Non-toxic
20 | CC(C)(C)c1ccc(C(=O)NC2CCC3(CC2)NC(=O)N(CCOc2ccc(F)cc2)C3=O)cc1 (stereo not given) | Non-toxic
21 | Cc1ccc(S(=O)(=O)NC2CCC3(CC2)NC(=O)N(CCOc2ccc(F)cc2)C3=O)cc1C (stereo not given) | Non-toxic
22 | Cc1ccccc1S(=O)(=O)NC1CCC2(CC1)NC(=O)N(CCOc1ccc(F)cc1)C2=O (stereo not given) | Non-toxic
23 | O=C1NC2(CCC(NS(=O)(=O)c3cccc(Br)c3)CC2)C(=O)N1CCOc1ccc(F)cc1 (stereo not given) | Non-toxic
24 | O=C1NC2(CCC(NS(=O)(=O)c3ccccc3F)CC2)C(=O)N1CCOc1ccc(F)cc1 (stereo not given) | Non-toxic
25 | Cc1ccc(C)c(S(=O)(=O)NC2CCC3(CC2)NC(=O)N(CCOc2ccc(F)cc2)C3=O)c1 (stereo not given) | Non-toxic
26 | Cc1ccc(S(=O)(=O)NC2CCC3(CC2)NC(=O)N(CCOc2ccc(F)cc2)C3=O)cc1 (stereo not given) | Non-toxic
27 | O=C1NC2(CCC(NS(=O)(=O)c3cccc(Cl)c3)CC2)C(=O)N1CCOc1ccc(F)cc1 (stereo not given) | Toxic
28 | Cc1cc(F)ccc1S(=O)(=O)NC1CCC2(CC1)NC(=O)N(CCOc1ccc(F)cc1)C2=O (stereo not given) | Non-toxic
29 | COc1ccc(S(=O)(=O)NC2CCC3(CC2)NC(=O)N(CCOc2ccc(F)cc2)C3=O)cc1 (stereo not given) | Non-toxic
30 | Cc1ccc(CS(=O)(=O)NC2CCC3(CC2)NC(=O)N(CCOc2ccc(F)cc2)C3=O)cc1 (stereo not given) | Toxic

tested on: Mus musculus; assay: Neurotoxicity in albino Mus musculus (mouse) assessed as motor impairment at 100 mg/kg, po measured at 2 hr by rotarod test; assay type: toxicity, organism-based; parameters: dose 100 mg/kg, route oral; details: in vivo

Row | Structure (SMILES) | Activity
31 | O=C1NC2(CCC(NS(=O)(=O)c3cccc(F)c3)CC2)C(=O)N1CCOc1ccc(F)cc1 (stereo not given) | Non-toxic
32 | Cc1cc(C)cc(S(=O)(=O)NC2CCC3(CC2)NC(=O)N(CCOc2ccc(F)cc2)C3=O)c1 (stereo not given) | Non-toxic
33 | CCc1ccc(S(=O)(=O)NC2CCC3(CC2)NC(=O)N(CCOc2ccc(F)cc2)C3=O)cc1 (stereo not given) | Non-toxic
34 | Cc1cccc(S(=O)(=O)NC2CCC3(CC2)NC(=O)N(CCOc2ccc(F)cc2)C3=O)c1 (stereo not given) | Non-toxic
35 | N#Cc1ccccc1S(=O)(=O)NC1CCC2(CC1)NC(=O)N(CCOc1ccc(F)cc1)C2=O (stereo not given) | Non-toxic
36 | O=C(NC1CCC2(CC1)NC(=O)N(CCOc1ccc(F)cc1)C2=O)OCc1ccccc1Cl (stereo not given) | Non-toxic
37 | O=C(NC1CCC2(CC1)NC(=O)N(CCOc1ccc(F)cc1)C2=O)Oc1ccc(Cl)cc1 (stereo not given) | Non-toxic
38 | Cc1ccc(C(=O)NC2CCC3(CC2)NC(=O)N(CCOc2ccc(F)cc2)C3=O)cc1 (stereo not given) | Non-toxic
39 | O=C(Cc1ccccc1)NC1CCC2(CC1)NC(=O)N(CCOc1ccc(F)cc1)C2=O (stereo not given) | Non-toxic
40 | O=C(NC1CCC2(CC1)NC(=O)N(CCOc1ccc(F)cc1)C2=O)c1ccccc1F (stereo not given) | Toxic
41 | Cc1cccc(C(=O)NC2CCC3(CC2)NC(=O)N(CCOc2ccc(F)cc2)C3=O)c1 (stereo not given) | Non-toxic
42 | O=C(NC1CCC2(CC1)NC(=O)N(CCOc1ccc(F)cc1)C2=O)c1cccc(Cl)c1 (stereo not given) | Toxic
43 | O=C(NC1CCC2(CC1)NC(=O)N(CCOc1ccc(F)cc1)C2=O)c1ccccc1 (stereo not given) | Non-toxic
44 | O=C(NC1CCC2(CC1)NC(=O)N(CCOc1ccc(F)cc1)C2=O)c1cccc(F)c1 (stereo not given) | Toxic
45 | O=C(NC1CCC2(CC1)NC(=O)N(CCOc1ccc(F)cc1)C2=O)c1ccc(F)cc1 (stereo not given) | Toxic
46 | O=C(NC1CCC2(CC1)NC(=O)N(CCOc1ccc(F)cc1)C2=O)Oc1ccccc1 (stereo not given) | Non-toxic
47 | O=C(NC1CCC2(CC1)NC(=O)N(CCOc1ccc(F)cc1)C2=O)c1ccc(Cl)cc1 (stereo not given) | Toxic
48 | O=C(NC1CCC2(CC1)NC(=O)N(CCOc1ccc(F)cc1)C2=O)c1ccccc1C(F)(F)F (stereo not given) | Non-toxic
49 | O=C(NC1CCC2(CC1)NC(=O)N(CCOc1ccc(F)cc1)C2=O)c1ccccc1Cl (stereo not given) | Non-toxic
50 | CC(C)(C)c1ccc(C(=O)NC2CCC3(CC2)NC(=O)N(CCOc2ccc(F)cc2)C3=O)cc1 (stereo not given) | Non-toxic
51 | Cc1ccc(S(=O)(=O)NC2CCC3(CC2)NC(=O)N(CCOc2ccc(F)cc2)C3=O)cc1C (stereo not given) | Non-toxic
52 | Cc1ccccc1S(=O)(=O)NC1CCC2(CC1)NC(=O)N(CCOc1ccc(F)cc1)C2=O (stereo not given) | Non-toxic
53 | O=C1NC2(CCC(NS(=O)(=O)c3cccc(Br)c3)CC2)C(=O)N1CCOc1ccc(F)cc1 (stereo not given) | Non-toxic
54 | O=C1NC2(CCC(NS(=O)(=O)c3ccccc3F)CC2)C(=O)N1CCOc1ccc(F)cc1 (stereo not given) | Non-toxic
55 | Cc1ccc(C)c(S(=O)(=O)NC2CCC3(CC2)NC(=O)N(CCOc2ccc(F)cc2)C3=O)c1 (stereo not given) | Non-toxic
56 | Cc1ccc(S(=O)(=O)NC2CCC3(CC2)NC(=O)N(CCOc2ccc(F)cc2)C3=O)cc1 (stereo not given) | Non-toxic
57 | O=C1NC2(CCC(NS(=O)(=O)c3cccc(Cl)c3)CC2)C(=O)N1CCOc1ccc(F)cc1 (stereo not given) | Toxic
58 | Cc1cc(F)ccc1S(=O)(=O)NC1CCC2(CC1)NC(=O)N(CCOc1ccc(F)cc1)C2=O (stereo not given) | Non-toxic
59 | COc1ccc(S(=O)(=O)NC2CCC3(CC2)NC(=O)N(CCOc2ccc(F)cc2)C3=O)cc1 (stereo not given) | Non-toxic
60 | Cc1ccc(CS(=O)(=O)NC2CCC3(CC2)NC(=O)N(CCOc2ccc(F)cc2)C3=O)cc1 (stereo not given) | Toxic

tested on: Mus musculus; assay: Anticonvulsant activity in albino Mus musculus (mouse) assessed as protection against maximal electric shock-induced seizures at 100 mg/kg, ip administered 30 min prior to maximal electric shock-challenge measured up to 4 hr relative to control; assay type: functional; details: route intraperitoneal

Row | Structure (SMILES) | Activity [%]
61 | O=C1NC2(CCC(NS(=O)(=O)c3cccc(F)c3)CC2)C(=O)N1CCOc1ccc(F)cc1 (stereo not given) | 6.5
62 | Cc1cc(C)cc(S(=O)(=O)NC2CCC3(CC2)NC(=O)N(CCOc2ccc(F)cc2)C3=O)c1 (stereo not given) | 43.12
63 | CCc1ccc(S(=O)(=O)NC2CCC3(CC2)NC(=O)N(CCOc2ccc(F)cc2)C3=O)cc1 (stereo not given) | 1.23
64 | Cc1cccc(S(=O)(=O)NC2CCC3(CC2)NC(=O)N(CCOc2ccc(F)cc2)C3=O)c1 (stereo not given) | 4.55
65 | N#Cc1ccccc1S(=O)(=O)NC1CCC2(CC1)NC(=O)N(CCOc1ccc(F)cc1)C2=O (stereo not given) | 4.51
66 | O=C(NC1CCC2(CC1)NC(=O)N(CCOc1ccc(F)cc1)C2=O)OCc1ccccc1Cl (stereo not given) | 48.82
67 | O=C(NC1CCC2(CC1)NC(=O)N(CCOc1ccc(F)cc1)C2=O)Oc1ccc(Cl)cc1 (stereo not given) | 59.29
68 | Cc1ccc(C(=O)NC2CCC3(CC2)NC(=O)N(CCOc2ccc(F)cc2)C3=O)cc1 (stereo not given) | 79.58
69 | O=C(Cc1ccccc1)NC1CCC2(CC1)NC(=O)N(CCOc1ccc(F)cc1)C2=O (stereo not given) | 47.21
70 | O=C(NC1CCC2(CC1)NC(=O)N(CCOc1ccc(F)cc1)C2=O)c1ccccc1F (stereo not given) | 48.12
71 | Cc1cccc(C(=O)NC2CCC3(CC2)NC(=O)N(CCOc2ccc(F)cc2)C3=O)c1 (stereo not given) | 78.62
72 | O=C(NC1CCC2(CC1)NC(=O)N(CCOc1ccc(F)cc1)C2=O)c1cccc(Cl)c1 (stereo not given) | 58.61
73 | O=C(NC1CCC2(CC1)NC(=O)N(CCOc1ccc(F)cc1)C2=O)c1ccccc1 (stereo not given) | 55.78
74 | O=C(NC1CCC2(CC1)NC(=O)N(CCOc1ccc(F)cc1)C2=O)c1cccc(F)c1 (stereo not given) | 58.02
75 | O=C(NC1CCC2(CC1)NC(=O)N(CCOc1ccc(F)cc1)C2=O)c1ccc(F)cc1 (stereo not given) | 57.94
76 | O=C(NC1CCC2(CC1)NC(=O)N(CCOc1ccc(F)cc1)C2=O)Oc1ccccc1 (stereo not given) | 56.89
77 | O=C(NC1CCC2(CC1)NC(=O)N(CCOc1ccc(F)cc1)C2=O)c1ccc(Cl)cc1 (stereo not given) | 49.83
78 | O=C(NC1CCC2(CC1)NC(=O)N(CCOc1ccc(F)cc1)C2=O)c1ccccc1C(F)(F)F (stereo not given) | 79.32
79 | O=C(NC1CCC2(CC1)NC(=O)N(CCOc1ccc(F)cc1)C2=O)c1ccccc1Cl (stereo not given) | 49.41
80 | CC(C)(C)c1ccc(C(=O)NC2CCC3(CC2)NC(=O)N(CCOc2ccc(F)cc2)C3=O)cc1 (stereo not given) | 48.15
81 | Cc1ccc(S(=O)(=O)NC2CCC3(CC2)NC(=O)N(CCOc2ccc(F)cc2)C3=O)cc1C (stereo not given) | 42.61
82 | Cc1ccccc1S(=O)(=O)NC1CCC2(CC1)NC(=O)N(CCOc1ccc(F)cc1)C2=O (stereo not given) | 13
83 | O=C1NC2(CCC(NS(=O)(=O)c3cccc(Br)c3)CC2)C(=O)N1CCOc1ccc(F)cc1 (stereo not given) | 7.41
84 | O=C1NC2(CCC(NS(=O)(=O)c3ccccc3F)CC2)C(=O)N1CCOc1ccc(F)cc1 (stereo not given) | 4.94
85 | Cc1ccc(C)c(S(=O)(=O)NC2CCC3(CC2)NC(=O)N(CCOc2ccc(F)cc2)C3=O)c1 (stereo not given) | 43.95
86 | Cc1ccc(S(=O)(=O)NC2CCC3(CC2)NC(=O)N(CCOc2ccc(F)cc2)C3=O)cc1 (stereo not given) | 1.14
87 | O=C1NC2(CCC(NS(=O)(=O)c3cccc(Cl)c3)CC2)C(=O)N1CCOc1ccc(F)cc1 (stereo not given) | 4.55
88 | Cc1cc(F)ccc1S(=O)(=O)NC1CCC2(CC1)NC(=O)N(CCOc1ccc(F)cc1)C2=O (stereo not given) | 3.25
89 | COc1ccc(S(=O)(=O)NC2CCC3(CC2)NC(=O)N(CCOc2ccc(F)cc2)C3=O)cc1 (stereo not given) | 9.23
90 | Cc1ccc(CS(=O)(=O)NC2CCC3(CC2)NC(=O)N(CCOc2ccc(F)cc2)C3=O)cc1 (stereo not given) | 12.6
